In article PMC10059125, “The Pharmaceutical Formulation Plays a Pivotal Role in Hydroxytyrosol Pharmacokinetics” (Pharmaceutics, 2023):
Like-named read-outs stand apart in the source and are kept apart here.

Legend:
[1] = Urinary excretion of DOPET and metabolites in healthy volunteers after oral enteric-coated capsules; type: in vivo, human; details: for cumulative metabolites distribution in urine, mean relative area percentage with respect to all identified and unidentified compounds: 24 h urine, oral 15 mg (97.3 µmole) DOPET; for mean peak in urine: approximately 6 h after oral 15 mg (97.3 µmole) DOPET, n = 20
Protocol: (§1) The study protocol, approved by the local ethics committee (Register Protocol No. 146 17/05/2018), was conducted on 20 healthy Caucasian volunteers, aged 25–60 years with BMI ranging from 19 and 25 kg/m^2, enrolled at the University hospital facility of the Clinical Research Unit of the Department of Biomedicine and Prevention, University of Tor Vergata (Rome, Italy). Two enteric-coated capsules, each containing 7.5 mg of DOPET, were administered orally. All subjects fulfilled the following eligibility criteria: non-smokers, non-alcoholics, healthy diet, and no drugs during the experimental procedure. The administration was preceded by a 4-day washout with polyphenols and an alcoholic-free diet to avoid any interference, and by a 10-h fasting period. The study was conducted in compliance with the Declaration of Helsinki, and the selected subjects agreed to the procedure by reviewing and signing the relevant, informed consensus.
Urine samples were collected at baseline (T0) and, after the intervention, at the following mean times: 3.45, 4.18, 5.14, 6.16, 8.19, 12, and 24 h in sterile, dark polystyrene tubes (100 mL) with screw caps with 10% L-ascorbic acid as a chemical preservative. Both plasma and urine samples were immediately shipped in dry ice to the Department of Chemical, Biological, Pharmaceutical and Environmental Sciences, University of Messina (Italy) for chemical analyses, stored at −80 °C and processed within 48 h.
(§2) Plasma and urine samples were processed, before and after hydrolysis, according to Alemán-Jiménez et al., with some modifications. Briefly, plasma and urine samples were thawed at room temperature and centrifuged (10,000× g for 5 min). Sample supernatants (100 and 400 μL, respectively) were hydrolyzed by incubation with 300 UI (plasma) and 1500 UI (urine) of β-glucuronidase from Helix pomatia for 2 h at 37 °C, clarified with 200 μL of MeOH/HCl (0.2 M) and centrifuged at 10,000× g for 5 min. An SPE clean-up step, by using Strata X-AW cartridges (Phenomenex, Torrance, CA, USA) mounted on VacElut Cartridge Manifolds (Agilent Technologies, Inc., Santa Clara, CA, USA), was carried out. Cartridges were conditioned and equilibrated with 2 mL of MeOH/HCOOH (98:2, v/v) and 2 mL of water/HCOOH (98:2, v/v), respectively. After sample loading, SPE cartridges were washed with water/HCOOH (98:2, v/v). Analytes were eluted with 1 mL of MeOH/HCOOH (98:2, v/v) and dried by a gentle stream of nitrogen at room temperature. Extracts were recovered with 200 μL of the mobile phase used for the LC-DAD-ESI-MS/MS analyses (see Section 2.4). Quality control samples were prepared by spiking DOPET and metabolites (DOPAC, HVA, and MOPET) in baseline control plasma and urine samples at two different concentrations (1.2 ng/mL and 5.3 ng/mL) correspondent to the limit of quantification (LOQ) in plasma and urine samples, respectively. Both precision (CV < 10%) and accuracy (≥90%) recorded in three replicates were acceptable according to ICH and FDA guidelines.
(§3) Plasma and urinary DOPET and metabolites were analyzed by LC-DAD-ESI-MS/MS (Agilent Technologies, Inc., Santa Clara, CA, USA). Chromatographic analysis was carried out by a Luna Omega PS C18 column (150 mm × 2.1 mm, 5 µm; Phenomenex, Torrance, CA, USA) at 25 °C by using a mobile phase consisting of 0.1% HCOOH (Solvent A) and methanol (Solvent B) according to the following elution program: 0–18 min, 5% B; 18–21 min, 95% B; 21–30 min, 5% B; 30–35 min, 5%. The injection volume was 10 µL, and the flow rate was 0.4 mL/min. The UV–Vis spectra were recorded, ranging from 190 to 400 nm, and chromatograms were acquired at 280 nm. […]

[2] = parameters: method as in doi:10.1016/j.foodchem.2011.07.101; details: after chronic or acute consumption of olive leaf supplements, 55 healthy young adults; cited from earlier work
[3] = parameters: method as in PMID 10692578; details: 24 h; enriched olive oils, 6 healthy male volunteers; cited from earlier work
[4] = parameters: method as in doi:10.1016/j.jff.2016.02.046; details: cited from earlier work
[5] = parameters: method as in PMID 20045462; details: single oral dose 2.5 mg/kg b.w., 10 subjects; cited from earlier work
[6] = parameters: method as in PMID 32524230; details: 5 mg DOPET conveyed in EVOO, 20 volunteers; cited from earlier work
[7] = parameters: method as in PMID 28452954; details: in vitro; cited from earlier work
[8] = Plasma pharmacokinetics of free DOPET in healthy volunteers after oral enteric-coated capsules (DOPET in EVOO), non-compartmental analysis; type: in vivo, human
Protocol: as §1
Blood samples were collected into 10 mL test tubes containing EDTA from a subcutaneous vein using a permanent catheter inserted into the forearm at baseline (T0) and 45, 90, 123, 150, 184, 247, 386, and 440 min. Samples were centrifuged at 1700× g for 10 min at 4 °C and the obtained plasma was aliquoted into test tubes containing citric acid (2 M, 10% v/v).
as §2
as §3, with “nm. The experimental parameters of the mass spectrometer (ion trap, model 6320, Agilent Technologies, Santa Clara, CA, USA) equipped with an electrospray ionization interface operating in the negative (ESI−) and positive (ESI+) ionization mode were set as follows: 3.5 kV capillary voltage, 40 psi nebulizer (N2) pressure, 350 °C drying gas temperature, 9 L/min drying gas flow, and 40 V skimmer voltage. The acquisition was carried out in full-scan mode (90–1000 m/z).” for “nm.”

[9] = parameters: method as in PMID 12765992; details: 25 mL of EVOO, 6 healthy volunteers; cited from earlier work
[10] = parameters: method as in PMID 23766098; details: cited from earlier work; for Cmax: olive leaf extract
[11] = parameters: method as in PMID 17870451; details: 100 g of olives containing 76.73 mg of DOPET, 7 healthy men; cited from earlier work
[12] = human, mean, n = 20, free DOPET in plasma, oral 15 mg DOPET (2 cps)

With `O=C(O)Cc1ccc(O)c(O)c1` [DOPAC, 3,4-dihydroxyphenylacetic acid] the “cumulative metabolites distribution in urine, mean relative area percentage with respect to all identified and unidentified compounds” value [1] was 13.48% and the “mean peak in urine” value [1] was 9.93 µmol.

With `COc1cc(CCO)ccc1O` [MOPET, 4-hydroxy-3-methoxyphenethanol] the “cumulative metabolites distribution in urine, mean relative area percentage with respect to all identified and unidentified compounds” value [1] was 0.94% and the “mean peak in urine” value [1] was 0.44 µmol.

In the case of `COc1cc(CC(=O)O)ccc1O` [HVA, homovanillic acid], the “mean peak in urine” value [1] is reported as 18.39 µmol.

For `C/C=C1/[C@H](O[C@@H]2O[C@H](CO)[C@@H](O)[C@H](O)[C@H]2O)OC=C(C(=O)OC)[C@H]1CC(=O)OCCc1ccc(O)c(O)c1` [oleuropein], the “detection in urine samples” value [2] is listed as “neither oleuropein nor DOPET was detected”.

For `OCCc1ccc(O)cc1` [tyrosol], the “urine excretion with respect to the dose administered” value [3] is given as 21–24%.

For `OCCc1ccc(O)c(O)c1` [DOPET, 3,4-dihydroxyphenyl ethanol], the “detection in urine samples” value [2] is given as “neither oleuropein nor DOPET was detected”, the “urine levels of DOPET and its metabolites, share of the DOPET administered” value ([4]; 5 mg of DOPET/day for one week) is given as 21% and the “urine levels of DOPET and its metabolites, share of the DOPET administered” value ([4]; 25 mg of DOPET/day for one week) is given as 28%. For the same compound, the “forms of DOPET excreted in urine” value ([4]; 5 or 25 mg of DOPET/day for one week) was 0–0.02%, the Cmax [5] was 1110 nM and the “time of maximum plasma concentration” value [5] was 13 min. The “cumulative metabolites distribution in urine, mean relative area percentage with respect to all identified and unidentified compounds” value [1] was 8.49%, the “mean peak in urine” value [1] was 4.67 µmol and the Cmax [6] was 3.79 ng/mL. For the same compound, the “time to Cmax” value [6] was 30 min, the “urine excretion with respect to the dose administered” value [3] was 29–40% and the genotoxicity or mutagenicity [7] was “does not exhibit any genotoxicity or mutagenicity”. For the same compound, the “bioavailability compared with the literature” value ([8]; enteric-coated capsule, DOPET in EVOO, versus previous results at the same dose administered) was “about 2.5 times”, the Cmax ([8]; human, plasma, po, 15 mg, mean, n = 20, free DOPET in plasma, oral 15 mg DOPET (2 cps), read-out: Cmax) was 5.5 ng/mL and the Tmax [8, 12] was 2.05 h. For the same compound, the half-life [8, 12] was 2.51 h, the AUCextrap_pred ([8]; mean, n = 20, fraction of total AUC due to extrapolated AUC, oral 15 mg DOPET) was 18.23% and the Cmax ([8]; mean, n = 20, free DOPET in plasma, oral 15 mg DOPET (2 cps)) was 5.48 ng/mL. The Cmax [9] was 25.83 ng/mL, the Tmax [9] was 0.967 h and the Cmax ([10]; capsule matrix) was 56 ng/mL. The Cmax ([10]; liquid matrix) was 59 ng/mL, the “decrease of Tmax” value ([10]; passing from encapsulated to the liquid formulation) was “about 30 min” and the “plasma concentration at Cmax” value [11] was 3150 ng/mL. For the same compound, the “time to Cmax” value [11] was 1 h.
